Assay results as given in patent US10213451B2, “Methods and compounds for modulating the secretion or expression of adhesion proteins or angiopoietins of cells” (PACIFIC ARROW LIMITED, priority 2004, dated 2019).

Columns and labels:
Type in all cases: cell-based, human
[1] = tested on: Fibronectin secretion from brain glioblastoma T98G cells; experiment: Fibronectin secretion (Western blot), T98G cells
[2] = tested on: angiopoietin expression in ES2 cells; experiment: Microarray gene expression, Table 12
Procedure: (§1) Y/D is the ratio (in folds) of gene expression in cells treated with compound Y as compared with those of the no drug control (D),
(§2) YM/D is the ratio of gene expression in cells treated with compound YM (ACH-Y, Y without sugar moiety) compared with those of the no drug control (D)
(§3) Cell culture and drug-treatment.: ES2 cells were seeded in a T-25 flask with 4.5 million cells per flask for 24 hours. Cell culture was replaced with fresh medium with xanifolia-Y (Y) or DMSO no drug control (D) for 24 hours. Cells were then harvested for RNA isolation. Three experiments were done.
(§4) RNA extraction, labeling, hybridization, and data analysis. RNA was extracted from tumor cells using the Qiagen RNeasy Kit. RNA quality and quantity was checked by the Agilent BioAnalyzer and the NanoDrop® ND-1000 spectrophotometer respectively before further manipulation. The first and second cDNA strands were synthesized from 20 ng of total RNA using the Affymetrix T7 oligo(dT) primer protocol and kit for the two-cycle amplification. To produce amplified biotin-labeled-cRNA, the cDNA was […] by in vitro transcription using the MegaScript kit from Ambion. 15.0 μg of the labeled cRNA was fragmented and re-checked for concentration using the NanoDrop® ND-1000 spectrophotometer. A hybridization cocktail containing Affymetrix spike-in controls and fragmented labeled cRNA was loaded onto the Human U133 Plus 2.0 GeneChip® oligonucleotide array. The Affymetrix array (Affymetrix, Inc. Santa Clara, Calif.) is comprised of over 1,300,000 unique oligonucleotide features that represent greater than 38,500 well-substantiated human genes. The array was hybridized for 16 hours at 45° C. with rotation at 60 rpm then washed and stained with a strepavidin, R-phycoerythrin conjugate stain on the Affymetrix Fluidicis Station 450. Signal amplification was done using biotinylated antistreptavidin. The arrays were scanned using the GeneChip® 3000 confocal laser scanner with autoloader. The images were analyzed and quality control metrics recorded using Affymetrix GCOS software version 1.4. Lastly, the expression value for each gene was calculated using dChip PM-only model based or Plier algorithm.
(§5) Pairwise comparisons were made as follows: Treated vs. Control (Y vs. D), Modified Drug vs Control (YM/ACY-H vs. D) and Treated vs. Modified Drug (Y vs. YM/ACH-Y) Cel files analyzed using the Bioconductor package of R Statistical programming. Limma analysis generated a reasonable number of changing genes between the samples.
(§6) The raw data in the .CEL files were normalized by the GCRMA method (robust multi-array analysis). It is implemented in Bioconductor (http://www.bioconductor.org/). The raw signal intensity data were normalized, background corrected and summarized based on certain statistical models, and an expression value, in log 2-scale, is obtained per chip per probe set. Then the null hypothesis was tested that there's no significant changes in gene expression between the treatment pairs. This was done by LIMMA and is also implemented in Bioconductor. It uses empirical Bayes method to estimate the variance in gene expression. One comparison was made, namely, High Grade vs. Low Grade. The raw p-values were adjusted by the Benjamnin-Hochberg method for false discovery rate (FDR) control. All data sets contained a significant number of genes with a p-value less than 0.05, which is that the probability that a gene is NOT differential expressed (false positive) is 1:20.

[3] = tested on: collagen expression in ES2 cells; experiment: Microarray gene expression, Table 5
Procedure: as §1, §2, §3, §4, §5, §6

[4] = tested on: CD54 expression in ES2 cells; experiment: Microarray gene expression, Table 11; conditions: probe 202638_s_at
Procedure: as §1, §2, §3
RNA extraction, labeling, hybridization, and data analysis. RNA was extracted from tumor cells using the Qiagen RNeasy Kit. RNA quality and quantity was checked by the Agilent BioAnalyzer and the NanoDrop® ND-1000 spectrophotometer respectively before further manipulation. […] The images were analyzed and quality control metrics recorded using Affymetrix GCOS software version 1.4. Lastly, the expression value for each gene was calculated using dChip PM-only model based or Plier algorithm.
Pairwise comparisons were made as follows: Treated vs. Control (Y vs. D), Modified Drug vs Control (YM/ACY-H vs. D) and Treated vs. Modified Drug (Y vs. YM/ACH-Y) Cel files analyzed using the Bioconductor package of R Statistical programming. […]

C/C=C(/C)C(=O)O[C@H]1[C@H](OC(=O)/C(C)=C\C)[C@@]2(CO)C(CC1(C)C)C1=CCC3[C@@]4(C)CC[C@H](O[C@@H]5OC(C(=O)O)[C@@H](O)C(O[C@@H]6O[C@@H](CO)C(O)C6O)C5O[C@@H]5OC(CO)[C@H](O)C(O)C5O)C(C)(C)C4CC[C@@]3(C)[C@]1(C)[C@@H](O)[C@H]2O (stereo partly drawn) [Xanifolia-Y, 3-O-[β-D-galactopyranosyl (1→2)]-α-L-arabinofuranosy (1→3)-β-D-glucuronopyranosyl-21,22-O-diangeloyl-3β, 15α, 16α, 21β, 22α, 28-hexahydroxyolean-12-ene]
% inhibition of Fibronectin secretion ([1]; 10 ug/ml, listed as Y3): 26% | inhibition at 10 µg/mL ([1]; Homo sapiens, T98G, 10 ug/ml): 27% | inhibition at 20 µg/mL ([1]; Homo sapiens, T98G, 20 ug/ml): 74% | ANGPT2 angiopoietin 2, gene expression ratio to no drug control (D) ([2]; probe 205572_at): 3.5 folds | ANGPT1 angiopoietin 1, gene expression ratio to no drug control (D) ([2]; probe 205609_at): −1.1 folds | ANGPT2 angiopoietin 2, gene expression ratio to no drug control (D) ([2]; probe 211148_s_at): 2.5 folds | ANGPTL4 angiopoietin-like 4, gene expression ratio to no drug control (D) ([2]; probe 221009_s_at): −1.2 folds | ANGPTL1 Angiopoietin-like 1, gene expression ratio to no drug control (D) ([2]; probe 227533_at): −1.5 folds | P4HB procollagen-proline, 2-oxoglutarate 4-dioxygenase, beta polypeptide, gene expression ratio to no drug control (D) ([3]; probe 200654_at): −1.6 folds | P4HB procollagen-proline, 2-oxoglutarate 4-dioxygenase, beta polypeptide, gene expression ratio to no drug control (D) ([3]; probe 200656_s_at): −1.8 folds | PLOD1 procollagen-lysine 1,2-oxoglutarate 5-dioxygenase 1, gene expression ratio to no drug control (D) ([3]; probe 200827_at): −1.7 folds | COL6A3 collagen, type VI, alpha 3, gene expression ratio to no drug control (D) ([3]; probe 201438_at): −2.4 folds | PLOD3 procollagen-lysine, 2-oxoglutarate 5-dioxygenase 3, gene expression ratio to no drug control (D) ([3]; probe 202185_at): −1.3 folds | COL1A1 collagen, type I, alpha 1, gene expression ratio to no drug control (D) ([3]; probe 202311_s_at): −1.6 folds | PCOLCE procollagen C-endopeptidase enhancer, gene expression ratio to no drug control (D) ([3]; probe 202465_at): −1.3 folds | PLOD2 procollagen-lysine, 2-oxoglutarate 5-dioxygenase 2, gene expression ratio to no drug control (D) ([3]; probe 202619_s_at): −1.7 folds | PLOD2 procollagen-lysine, 2-oxoglutarate 5-dioxygenase 2, gene expression ratio to no drug control (D) ([3]; probe 202620_s_at): −1.4 folds | P4HA2 procollagen-proline, 2-oxoglutarate 4-dioxygenase, alpha polypeptide II, gene expression ratio to no drug control (D) ([3]; probe 202733_at): −1.4 folds | COL5A1 collagen, type V, alpha 1, gene expression ratio to no drug control (D) ([3]; probe 203325_s_at): −1.7 folds | P4HA1 procollagen-proline, 2-oxoglutarate 4-dioxygenase, alpha polypeptide I, gene expression ratio to no drug control (D) ([3]; probe 207543_s_at): −2.0 folds | COL13A1 collagen, type XIII, alpha 1, gene expression ratio to no drug control (D) ([3]; probe 208535_x_at): −1.4 folds | COL18A1 collagen, type XVIII, alpha 1, gene expression ratio to no drug control (D) ([3]; probe 209081_s_at): −1.7 folds | COL13A1 collagen, type XIII, alpha 1, gene expression ratio to no drug control (D) ([3]; probe 211343_s_at): −1.9 folds | COL13A1 collagen, type XIII, alpha 1, gene expression ratio to no drug control (D) ([3]; probe 211809_x_at): −2.0 folds | COL4A2 collagen, type IV, alpha 2, gene expression ratio to no drug control (D) ([3]; probe 211966_at): −1.8 folds | COL4A1 collagen, type IV, alpha 1, gene expression ratio to no drug control (D) ([3]; probe 211981_at): −1.6 folds | COL6A1 collagen, type VI, alpha 1, gene expression ratio to no drug control (D) ([3]; probe 212091_s_at): −1.6 folds | COL5A1 collagen, type V, alpha 1, gene expression ratio to no drug control (D) ([3]; probe 212489_at): −1.5 folds | COL4A5 collagen, type IV, alpha 5 (Alport syndrome), gene expression ratio to no drug control (D) ([3]; probe 213110_s_at): −1.6 folds | COL6A2 collagen, type VI, alpha 2, gene expression ratio to no drug control (D) ([3]; probe 213290_at): −1.6 folds | COL4A6 collagen, type IV, alpha 6, gene expression ratio to no drug control (D) ([3]; probe 213992_at): −2.0 folds | COL10A1 collagen, type X, alpha 1, gene expression ratio to no drug control (D) ([3]; probe 217428_s_at): −3.0 folds | COL5A2 collagen, type V, alpha 2, gene expression ratio to no drug control (D) ([3]; probe 221729_at): −1.3 folds | COL5A2 collagen, type V, alpha 2, gene expression ratio to no drug control (D) ([3]; probe 221730_at): −1.6 folds | COL12A1 collagen, type XII, alpha 1, gene expression ratio to no drug control (D) ([3]; probe 231766_s_at): −2.8 folds | CCBE1 collagen and calcium binding EGF domains 1, gene expression ratio to no drug control (D) ([3]; probe 242324_x_at): −1.3 folds | COL5A1 collagen, type V, alpha 1, gene expression ratio to no drug control (D) ([3]; probe 1556138_a_at): −2.2 folds | P4HA2 procollagen-proline, 2-oxoglutarate 4-dioxygenase, alpha polypeptide II, gene expression ratio to no drug control (D) ([3]; probe 1568611_at): −1.3 folds | expression ratio to the control, collagen ([3]; span over probes of Table 5): −1.3 to −3.0 folds | ICAM1 intercellular adhesion molecule 1 (CD54), gene expression ratio to no drug control (D) [4]: 1.6 folds
